Experimental data as given in the METLIN SMRT retention time set (Domingo-Almenara et al. 2019).

Test: gradient 5% acetonitrile 3 min, to 50% in 2 min, to 85% in 15 min, held 3 min, 100 µL/min
Conditions: column: Zorbax Extend-C18 2.1 x 50 mm; eluents: water / acetonitrile, 0.1% formic acid
In short: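 Each retention time is based on an adduct peak selected computationally and verified by manual inspection. Measurements used HPLC–quadrupole time-of-flight mass spectrometry in positive and negative ionization mode on mixtures of ~100 pure standards. Chromatography ran on a Zorbax Extend-C18 column (2.1 × 50 mm, 1.8 μm) at 100 μL/min with water and acetonitrile, each containing 0.1% formic acid, and dead and dwell volumes of 40 μL and 900 μL.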

| Compound | RP-LC retention time [s] |
| --- | --- |
| CCCn1c(=O)sc2cc(S(=O)(=O)N3CCC(C(=O)N(C)Cc4ccco4)CC3)ccc21 | 901 |
| COc1ccc(-c2nn3c(-c4ccc(N(C)C)cc4)nnc3s2)cc1 | 1120 |
| O=C(Nc1ccccc1)N1CCC(OCc2ccccc2)C1 (stereo not given) | 837 |
| CN(C)C(=O)c1cc(=O)[nH]c2ccc(F)cc12 | 577 |
| COc1cc(OC)c(NC(=O)Cn2nc3n(c2=O)CCCC3)cc1Cl | 673 |
| CN(Cc1ccsc1)C(=O)Nc1ccc(F)cc1 | 839 |
| CN(C)C(=O)c1ccc2c(c1)nc(CN(C)C(=O)Nc1ccc(Cl)cc1)n2C | 616 |
| CCCCc1ccc(N2C=C(C#N)S(=O)(=O)c3ccccc32)cc1 | 1150 |
| CSc1ccc(CNC(=O)C2CCCN(C(=O)c3[nH]c(C)cc3C)C2)cc1 (stereo not given) | 701 |
| Cn1c(N2CCCC(C(=O)NCC3CCN(Cc4cccc(F)c4)CC3)C2)cc(=O)n(C)c1=O (stereo not given) | 575 |
| CCCNC(=O)c1ccc(-c2nc3cc(NS(=O)(=O)c4cccs4)ccc3n2C)cc1 | 662 |
| COCCn1cc2c3c(cccc31)CN(C(=O)Nc1cc(Cl)c(OC)cc1OC)CC2 | 993 |
| Cc1c(Cl)cccc1NC(=O)N1CCCC(C)(C(=O)NCc2ccccc2)C1 (stereo not given) | 1010 |
| CCOC(=O)C1CCN(C(=O)C2CCCN(c3cnc4nc(C)c(C)nc4c3)C2)CC1 (stereo not given) | 689 |
| CCc1ccc(CNC(=O)C2=C3CCCN3c3ccc(F)cc3S2(=O)=O)cc1 | 996 |
| O=C([C@@H]1C[C@H](Oc2ccccc2)CN1C(=O)CC1CCCC1)N1CCCC1 | 832 |
| COc1ccc(Cl)cc1NC(=O)Cn1cc2c(n1)CCCC2 | 1020 |
| COc1cccc(CNC(=O)N2CCCC(C)(C(=O)NCc3ccc(F)cc3)C2)c1 (stereo not given) | 815 |
| O=C(NCCN1CCCCCC1)C1CCCN(c2ncc(-c3ccc(F)cc3)cn2)C1 (stereo not given) | 715 |

| Compound | RP-LC retention time [s] |
| --- | --- |
| CCC(=O)N1CCc2cc(C)c(S(=O)(=O)NC3CCCC3)cc21 | 869 |
| CC(C)OCCCNC(=O)CCCn1c2ccccc2c2cnn(C)c(=O)c21 | 773 |
| CCN(CC)C(=O)CN1C(=O)C2CCCCN2c2ccc(S(=O)(=O)N3CCCC3)cc21 (stereo not given) | 832 |
| O=C(NC1CC1)C1CCN(C(=O)c2ncn3c2COC(c2ccc(Cl)cc2)C3)CC1 (stereo not given) | 713 |
| Cc1nn(-c2ccccc2)c2ccn(CC(=O)N3CCN(c4ccccc4Cl)CC3)c(=O)c12 | 642 |
| CC1(C)CC(NC(=O)c2cccc(Br)c2)CC(C)(C)N1 | 620 |
| CCc1nnc(-c2ccc3ccn(CC(=O)Nc4ccc(CN5CCN(CC)CC5)cc4)c3c2)o1 | 612 |
| CCc1nc2nc3c(cn2n1)C(=O)CC(C)(C)C3 | 693 |
| COC(=O)c1ccc(C(=O)OC)c(NC(=O)N2CCC(CN3CCC(C)CC3)CC2)c1 | 678 |
| COc1cc(/C=C2\CCOC2=O)cc(OC)c1OC | 802 |
| COc1cc(=O)n(-c2ccccc2C)nc1C(=O)Nc1ccc(OC(F)(F)F)cc1 | 880 |
| CCOC(=O)C1C(=O)C=C(c2cccc(NS(C)(=O)=O)c2)CC1c1cccs1 (stereo not given) | 822 |
| CNC(=O)c1nc(-c2ccc(C)cc2)n2c1CCCCC2 | 702 |
| COCCCNC(=O)CCCn1c(=O)c2cccn2c2ccccc21 | 682 |
| CCC(C)NC(=O)CN1C(=O)C2CCCCN2c2ccc(S(=O)(=O)N3CCCC3)cc21 (stereo not given) | 850 |
| CCOC(=O)c1cc(S(=O)(=O)N2CCCC2C(=O)Nc2ccc3c(c2)OCO3)cn1C (stereo not given) | 876 |
| CN1c2cc(F)ccc2C(=O)NC12CCN(C(=O)Nc1ccc(F)cc1F)CC2 | 752 |
| O=C(NC1CC1)c1cn(CCC2CCCCN2C(=O)c2ccoc2)nn1 (stereo not given) | 641 |
| CCOC(=O)N1CCN(S(=O)(=O)c2c[nH]c(=O)[nH]c2=O)CC1 | 582 |

More lines, now with the values ahead:

| RP-LC retention time [s] | Compound |
| --- | --- |
| 526 | COc1cccc(-c2cc3n(n2)CCCN(Cc2cccnc2)C3)c1 |
| 845 | CCN1C(=O)c2ccccc2Oc2ccc(C(=O)NCCc3ccccc3)cc21 |
| 1060 | COc1ccc(-c2nnc(-c3cccnc3NCc3cccc(OC)c3OC)o2)cc1 |
| 903 | Cc1ccc(CNC(=O)Cn2c(C)cc(-c3nnc(C4CCC4)o3)c2C)cc1 |
| 671 | CN(C)c1ccc(C(=O)N2CCc3cn(C)c4cccc(c34)C2)cc1 |
| 688 | Cc1nc(NC(=O)c2ccccc2)nc2cc3c(cc12)OCO3 |
| 1230 | O=C(NC1(c2nc(-c3ccccc3)no2)CCCCC1)c1cccc(Cl)c1 |
| 708 | O=C(c1ccc(Cl)c(Cl)c1)N1CCN(Cc2nncn2C2CCCCC2)CC1 |
| 676 | Cc1c(F)cccc1NC(=O)N1CC(F)(F)C[C@H]1CN1CCCC1 |
| 946 | O=C(NCCc1cccs1)C1CCN(S(=O)(=O)c2ccc(-c3noc(C4CC4)n3)cc2)CC1 |
| 749 | CCNC(=O)c1ccc(-n2nc(C)cc2-c2ccccc2)cc1 |
| 755 | Cc1ccc(NC(=O)C2(C)Oc3cccnc3NC2=O)cc1F (stereo not given) |
| 865 | Cc1ccc(N2C(=O)CN(CCc3cccs3)[C@H]3CS(=O)(=O)C[C@H]32)cc1C |
| 1030 | COc1ccc(C2(C(=O)Nc3cc(-c4ccsc4)no3)CC2)cc1 |
| 675 | O=C(NCc1ccccc1F)c1cccc(-c2ccc(N3CCCC3)nc2)c1 |
| 674 | O=C(NCC1CCN(S(=O)(=O)C2CC2)CC1)c1cc(=O)c2ccccc2o1 |
| 1170 | CC(C)c1cc(C(=O)NC2CCCCCC2)nc2ccnn12 |
| 786 | CCOCCCNC(=O)c1nnc(-c2ccc(S(=O)(=O)N3CCCC3)cc2)o1 |
| 697 | Nc1ncnc(N2CCc3ccccc32)c1[N+](=O)[O-] |
| 584 | OC1(c2ccccn2)CCOC2(CCN(Cc3cccc(Cl)c3)CC2)C1 (stereo not given) |
| 943 | CCCn1cc(S(=O)(=O)Nc2cccc(C)c2C)c2cccnc21 |
| 993 | COC(=O)c1ccccc1NC(=O)Cn1c(-c2nonc2N)nc2ccccc21 |
| 1010 | CCOc1ccc(N2C(=O)C3N=NN(Cc4nc(-c5ccccc5Br)no4)C3C2=O)cc1 (stereo not given) |
| 1160 | Cc1c(Cl)cccc1Nc1c(-c2ccc(Br)cc2)nc2cnccn12 |
| 675 | CN1C(=O)c2ccccc2Oc2ccc(C(=O)N3CCOCC3)cc21 |
| 740 | O=C(C1=CN(c2ccccc2F)c2cc(F)ccc2S1(=O)=O)N1CCOCC1 |

| RP-LC retention time [s] | Compound |
| --- | --- |
| 974 | O=C(Nc1ccccc1F)C(=O)c1cn(CC(=O)N2CCCC2)c2ccccc12 |
| 751 | Cn1ncc2c(Nc3cccc(Cl)c3)nc(N3CCN(C4CCCCC4)CC3)nc21 |
| 897 | Cc1nc(-c2noc(-c3ccc(F)cc3)n2)cn1CC(=O)Nc1cccc(F)c1 |
| 880 | Nc1c(C(=O)Nc2ccc([N+](=O)[O-])cc2)oc2ccccc12 |
| 591 | Cc1ccsc1CN1CCn2c(nnc2[C@@H]2C[C@@H](O)CN2Cc2cccnc2)C1 |
| 750 | O=C(Nc1nnc(C2CC(=O)N(c3ccc(F)cc3)C2)o1)c1cccc(Cl)c1 (stereo not given) |
| 726 | O=C1CCC2(C(=O)NCC3CC3)CCCC=C2N1c1ccccc1 (stereo not given) |
| 986 | COc1ccc(-c2noc(Cn3ccn4nc(-c5ccc(C)cc5)cc4c3=O)n2)cc1OC |
| 669 | Cc1cc(C(=O)N2CCCCCC2c2nnc(C)o2)on1 (stereo not given) |
| 732 | Cn1c(N2CCC(C(=O)Nc3ccc(Cl)cc3)CC2)cc(=O)n(C)c1=O |
| 945 | COC(=O)c1ccc2c(=O)n(-c3cc(F)cc(F)c3)c(N3CCOCC3)nc2c1 |
| 759 | CC(C)N1CCn2cc(S(=O)(=O)Nc3ccc(F)cc3F)cc2C1=O |
| 1050 | Fc1ccccc1-c1noc(-c2nc(C3CC3)no2)n1 |
| 584 | Cc1ccc2nc3c(c(C(=O)NC4CC4)c2c1)CCCC3 |
| 910 | CN1C(=O)c2cc(S(=O)(=O)Nc3ccc(F)c(F)c3)ccc2Oc2cccnc21 |
| 583 | COc1ccc(-c2nnc3n2CCN(Cc2cnn(C)c2C)C3)cc1 |
| 711 | COCCc1noc(-c2cnc3nc(C)ccc3c2NCc2cccc(Cl)c2)n1 |
| 738 | O=C(Cn1c(=O)oc2ccccc21)NCC1CCN(C(=O)c2cc3ccccc3o2)CC1 |
| 659 | Cc1ccc(CN2CCC(CNC(=O)c3noc(C)c3Cn3nc(C)cc3C)C2)cc1 (stereo not given) |
| 965 | O=C(Nc1cc(-c2ccccn2)no1)c1ccc2ccccc2n1 |
| 877 | O=C(Nc1ccc(Cl)cc1)N1CCCC(c2nnc(Cc3ccc(F)cc3)o2)C1 (stereo not given) |
| 720 | Cc1cccc(N2CCN(CC(O)c3ccc4c(c3)OCO4)CC2)c1C (stereo not given) |
| 903 | Cc1noc(-c2ccnc(-n3ncc(C(=O)NCCc4c[nH]c5ccccc45)c3C)c2)n1 |
| 970 | Cn1cnc2c(C(=O)Nc3cccc(C(F)(F)F)c3)nn(-c3ccccc3)c2c1=O |
| 765 | Cc1cc(NC(=O)CN2C(=O)CN(C)C(=O)c3ccccc32)ccc1Br |
| 693 | COCc1nncn1C1CCN(S(=O)(=O)c2cccc(F)c2)CC1 |
